In patent publication US20240261474A1, “BIODEGRADABLE TISSUE SCAFFOLD WITH SECONDARY MATRIX TO HOST WEAKLY ADHERENT CELLS” (THE U.S.A., as represented by the Secretary, Department of …, priority 2021, published 2024):
Entries after “also recorded” stand apart in the source; their conditions may differ.

How the values were obtained:
Assay type in all cases: cell-based, human
iPSC-RPE [1] = assay: Shape metrics (cell area) of drug-treated fully mature iPSC-RPE on transwells; conditions: treated from D21 until fully mature; for iPSC-RPE area: transwells; for iPSC-RPE cell size compared with human RPE populations: reference P1 macular, P3 peripheral
From the text: Segmentation Using Convolutional Network: A Convolutional Neural Network (CNN) algorithm was used to recognize RPE cell borders from images of samples labeled by immunofluorescence. The algorithm generates a binary mask of segmented RPE borders; and this output was manually corrected to provide the “right answer” on which the algorithm would learn. Once trained, the CNN algorithm was fed with images of fluorescently labeled RPE cells and the binary mask images that were generated become the input for the REShAPE software for cell shape analysis (FIG. 3).
Morphometric Analysis Using REShAPE: The binary segmentation produced by the CNN algorithm was transferred to REShAPE for cell shape analysis. REShAPE (Retinal Epithelium Shape and Pigment Evaluator) is a Fiji plugin for image analysis. For every cell in a field of view that has been successfully segmented, REShAPE provide quantification of more than 25 different shape metrics. The raw data was stored in a spreadsheet to allow for statistical analysis. In addition, the software created images of segmented cells for every metric analyzed, where every cell is color-coded according to the raw values (FIG. 4). The color-coded images display the location of the cells analyzed. The shape metrics were analyzed with the software to give measurements of cell dimensions, such as area and perimeter, measurements of elongation, such as length of major and minor axis, and measurements of cell regularity, such as hexagonality score and number of neighbors. The analysis was performed in pixel units or μm, as far as the pixel to μm conversion is provided. The analysis of data and the graphs have been done using R software (“R Core Team (2018). R: A language and environment for statistical computing. R Foundation for Statistical Computing, Vienna, Austria. URL https://www.R-project.org/”). The R packages “plyr” and “ggplot2” have been use for data handling and plotting respectively (Wickham, 2009, 2011). The Dunnett's test, a method for post hoc pairwise multiple comparisons, was used to compute statistical analysis by comparing several treatment groups to control groups. A 95% family-wise confidence level has been used. […] Shapiro-Wilk's test and one-way ANOVA were carried out using the R package “dplyr” (Wickham et al., dplyr: A Grammar of Data Manipulation. Retrieved from https://cran.r-project.org/package=dplyr, 2019), while Q-Q plots were drawn using the R package “ggpubr” (Kassambara, ggpubr: “ggplot2” Based Publication Ready Plots. Retrieved from cran.r-project.org/package=ggpubr, 2020). […]
Subsequently, shape metrics were analyzed to confirm the effect of the drugs on cell areas. […]

iPSC-RPE [2] = assay: Trans-epithelial electrical resistance (TER), tight junction integrity; conditions: fully mature iPSC-RPE; for TER resistance: minimum threshold 400 Ωcm^2, DMSO around 1100
Procedure: Different techniques were used to study RPE morphologic features.
At this point the trans-epithelial electrical resistance (TER) was assayed to confirm the quality of differentiation and examine the effect of drugs on tight junction integrity. The minimum threshold of 400 Ωcm^2 for epithelial resistance per unit area is used to determine good batches of differentiation.
Trans-epithelial electrical resistance (TER) is a measure of the tightness of the monolayer. The tighter the monolayer, the healthier are the cells in the monolayer. A cutoff of 400 ohm*cm^2 was used to exclude cells with low TER. […] The range specifies 90% of the data.

iPSC-RPE [3] = assay: Hematoxylin and eosin staining, gross morphology of the monolayer; conditions: H&E, AGN 193109 0.2 μM, endo-IWR-1 4 uM
Procedure: Brightfield imaging was used to determine RPE pigmentation defects, while hematoxylin and eosin (H&E) staining was valuable to inspect gross morphologic alterations of the monolayer. A section of transwell membrane was cut and mounted on a glass slide for brightfield imaging. Pigmentation levels were preserved after ENDO-1-IWR and AGN 193109 treatments as compared to DMSO-treated iPSC-RPE.
(§1) AGN 193109 was used at 0.2 μM and endo-IWR-1 at 4 uM. Both drugs were dissolved in DMSO, so that the final concentration of DMSO was not more than 0.1%. The final concentration of DMSO control was 0.1%. The compounds were added in RPE maturation medium until cells were mature. Gross cell morphology was also analyzed (FIGS. 20B, 20D, and 20F, left image) to detect possible abnormalities. Fine intracellular structures were examined for alterations with transmission electron microscopy (TEM, FIGS. 20B, 20D, and 20F, right image).

iPSC-RPE [4] = assay: Transmission electron microscopy, fine intracellular structures; conditions: TEM, AGN 193109 0.2 μM, endo-IWR-1 4 uM
Procedure: Finally, transmission electron microscopy (TEM) was used to detect fine morphological alterations, whereas scanning electron microscopy (SEM) was essential to study modifications in apical processes structures. […] In DMSO-treated iPSC-RPE we found both types of apical processes, petal and finger-like.
as §1

SMILES | iPSC-RPE area (iPSC-RPE [1]) [μm^2] | iPSC-RPE cell size compared with human RPE populations (iPSC-RPE [1]) | effect on epithelial barrier / tight junction integrity (iPSC-RPE [2]) | TER resistance (iPSC-RPE [2]) | gross cell morphology (iPSC-RPE [3]) | fine intracellular structures (iPSC-RPE [4]) | gross cell morphology (iPSC-RPE [3]; listed as endo-IWR-1) | fine intracellular structures (iPSC-RPE [4]; listed as endo-IWR-1)
Cc1ccc(C2=CCC(C)(C)c3ccc(C#Cc4ccc(C(=O)O)cc4)cc32)cc1 [AGN 193109, 4-[2-[5,6-Dihydro-5,5-dimethyl-8-(4-methylphenyl)-2-naphthalenyl]ethynyl]-benzoic acid] | 161.8±149.7 | comparable to the dimension of macular RPE population (P1); also recorded: shifts iPSC-RPE cell sizes toward macular RPE population (P1); also recorded: able to reproduce the cellular size of macular population (P1) and peripheral population (P3) respectively | maintained tight junction integrity | ~1600 Ωcm^2 | no gross morphological alterations were detected; also recorded: nor did they affect gross or fine cell morphology | no fine intracellular structure defects were identified; also recorded: nor did they affect gross or fine cell morphology |  | 
O=C(Nc1cccc2cccnc12)c1ccc(N2C(=O)C3C4C=CC(C4)C3C2=O)cc1 (stereo not drawn) [ENDO-1-IWR, 4-(1,3,3a,4,7,7a-Hexahydro-1,3-dioxo-4,7-methano-2H-isoindol-2-yl)-N-8-quinolinyl-Benzamide] | 251.8±218.4 | comparable to cells of peripheral RPE population P3; also recorded: increases cell sizes up to the dimensions of the peripheral RPE population P3; also recorded: able to reproduce the cellular size of macular population (P1) and peripheral population (P3) respectively; also recorded: increases RPE cell size to match human peripheral RPE population P3 | maintained tight junction integrity | ~1200 Ωcm^2 | no gross morphological alterations were detected | no fine intracellular structure defects were identified | nor did they affect gross or fine cell morphology | nor did they affect gross or fine cell morphology
